We go through 24 compounds from ChEMBL document CHEMBL4396891, “Recent update on anti-dengue drug discovery” (Eur J Med Chem, 2019).

Converted amounts (≈) assume the structure as drawn.

Test [1] deals with dengue virus type 2. Nature of the test: Antiviral activity against DENV2. Type of test: functional, organism-based.
For test [2], the system named is dengue virus type 1. Kind of test: Antiviral activity against DENV1. Type of test: functional, organism-based.
Test [3] has as its system dengue virus type 3. Nature of the test: Antiviral activity against DENV3. Type of test: functional, organism-based.
The subject of test [4] is dengue virus type 4. Kind of test: Antiviral activity against DENV4. Type of test: functional, organism-based.
The subject of test [5] is dengue virus type 2. Kind of test: Antiviral activity against DENV2 infected in BHK-21 cells assessed as reduction in viral production. Type of test: functional, organism-based.
Test [6] addresses T1, Nonstructural protein 5 (Dengue virus, UniProt V5TFZ2). Kind of test: Inhibition of His-tagged DENV2 NS5 RNA dependent RNA polymerase expressed in baculovirus infected sf9 cells. The arrangement: species or system dengue virus type 2.
The target in test [7] is T1, Nonstructural protein 5. Kind of test: Inhibition of His-tagged DENV2 NS5 RNA dependent RNA polymerase. More on the design: species or system dengue virus type 2.
The subject of test [8] is dengue virus type 1. Nature of the test: Antiviral activity against DENV1 FGA/89 infected in human Huh7.5 cells after 72 hrs. The note with it: FGA/89, Huh7.5, 72 h. Type of test: functional, organism-based.
Test [9] deals with dengue virus type 2. Kind of test: Antiviral activity against DENV2 ICC-265 infected in human Huh7.5 cells after 72 hrs. It counts as functional, organism-based. Conditions: ICC-265, Huh7.5, 72 h.
Test [10] deals with dengue virus type 3. Nature of the test: Antiviral activity against DENV3 97 infected in human Huh7.5 cells after 72 hrs. The note with it: Dengue virus, 97, Huh7.5, 72 h. It counts as functional, organism-based.
Test [11] has as its system dengue virus type 4. Nature of the test: Antiviral activity against DENV4 TVP360 infected in human Huh7.5 cells after 72 hrs. Type of test: functional, organism-based. Conditions: TVP360, Huh7.5, 72 h.
The test system of test [12] is dengue virus type 2. Nature of the test: Antiviral activity against DENV2 infected in BHK-21 cells by MTTR assay. It counts as functional, organism-based.
The subject of test [13] is dengue virus type 2. Nature of the test: Antiviral activity against DENV2 infected in BHK-21 cells after 72 hrs by plaque-forming assay. It counts as functional, organism-based. Conditions: BHK-21, 72 h.
Test [14] addresses T2, Genome polyprotein (dengue virus type 2, UniProt P29990). Kind of test: Inhibition of DENV2 NS2B-NS3 serine protease using Bz-Nle-Lys-Arg-Arg-AMC as substrate after 15 mins by fluorescence assay.
For test [15], the system named is Dengue virus. Kind of test: Antiviral activity against dengue virus. Type of test: functional, organism-based.
Test [16] concerns dengue virus type 2. Nature of the test: Antiviral activity against DENV2 infected in human Huh7 cells by qRT-PCR analysis. The note with it: Huh-7. It counts as functional, organism-based.
The target of test [17] is T1, Nonstructural protein 5. Nature of the test: Inhibition of dengue virus NS5 RNA dependent RNA polymerase.
For test [18], the system named is dengue virus type 2. Nature of the test: Antiviral activity against DENV2 infected in human Huh-7 cells. Type of test: functional, organism-based.
Test [19] deals with dengue virus type 2. Nature of the test: Antiviral activity against DENV2 New Guinea C infected in human Huh7 cells assessed as reduction in viral titer after 3 to 4 days by MTT assay. It counts as functional, organism-based. Conditions: Huh-7.
The target in test [20] is T2, Genome polyprotein. Nature of the test: Inhibition of DENV2 NS2B-NS3 serine protease expressed using Benzoyl-Nle-Lys-Arg-Arg-AMC as substrate measured preincubated for 3 mins followed by substrate addition by fluorescence assay.
Test [21] relates to dengue virus type 2. Kind of test: Antiviral activity against DENV2 infected in BHK-21 cells assessed as viral replication. It counts as functional, organism-based.

T1 sequence (V5TFZ2 whole entry): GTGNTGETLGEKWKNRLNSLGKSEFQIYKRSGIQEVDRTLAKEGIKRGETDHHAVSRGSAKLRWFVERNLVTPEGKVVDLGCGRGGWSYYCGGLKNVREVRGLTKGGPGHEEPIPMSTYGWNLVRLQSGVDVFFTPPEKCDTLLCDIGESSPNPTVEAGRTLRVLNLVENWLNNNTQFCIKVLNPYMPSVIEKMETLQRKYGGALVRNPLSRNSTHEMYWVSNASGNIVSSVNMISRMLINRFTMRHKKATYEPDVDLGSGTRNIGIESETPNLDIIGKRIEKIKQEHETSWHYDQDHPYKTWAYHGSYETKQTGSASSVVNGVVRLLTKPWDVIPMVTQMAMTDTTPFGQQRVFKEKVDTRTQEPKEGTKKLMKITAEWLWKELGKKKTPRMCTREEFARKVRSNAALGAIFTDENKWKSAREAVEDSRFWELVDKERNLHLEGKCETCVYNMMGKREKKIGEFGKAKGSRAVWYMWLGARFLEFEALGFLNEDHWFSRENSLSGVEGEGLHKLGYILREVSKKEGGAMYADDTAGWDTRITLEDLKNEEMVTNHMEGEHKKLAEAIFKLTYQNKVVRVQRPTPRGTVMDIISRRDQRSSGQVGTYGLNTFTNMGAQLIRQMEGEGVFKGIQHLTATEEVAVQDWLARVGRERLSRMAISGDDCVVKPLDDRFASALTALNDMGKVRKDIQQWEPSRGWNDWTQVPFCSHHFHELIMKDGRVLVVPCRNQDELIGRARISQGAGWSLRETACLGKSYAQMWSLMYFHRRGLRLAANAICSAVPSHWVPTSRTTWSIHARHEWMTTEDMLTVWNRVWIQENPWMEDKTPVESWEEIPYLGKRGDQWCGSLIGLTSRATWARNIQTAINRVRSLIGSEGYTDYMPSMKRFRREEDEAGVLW
T2 sequence (P29990 1346-1475 limits assumed): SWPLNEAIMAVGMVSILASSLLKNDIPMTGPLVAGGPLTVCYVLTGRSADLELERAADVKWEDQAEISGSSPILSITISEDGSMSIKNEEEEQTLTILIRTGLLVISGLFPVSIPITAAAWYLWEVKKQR
T2 sequence (P29990 1476-2093 limits assumed): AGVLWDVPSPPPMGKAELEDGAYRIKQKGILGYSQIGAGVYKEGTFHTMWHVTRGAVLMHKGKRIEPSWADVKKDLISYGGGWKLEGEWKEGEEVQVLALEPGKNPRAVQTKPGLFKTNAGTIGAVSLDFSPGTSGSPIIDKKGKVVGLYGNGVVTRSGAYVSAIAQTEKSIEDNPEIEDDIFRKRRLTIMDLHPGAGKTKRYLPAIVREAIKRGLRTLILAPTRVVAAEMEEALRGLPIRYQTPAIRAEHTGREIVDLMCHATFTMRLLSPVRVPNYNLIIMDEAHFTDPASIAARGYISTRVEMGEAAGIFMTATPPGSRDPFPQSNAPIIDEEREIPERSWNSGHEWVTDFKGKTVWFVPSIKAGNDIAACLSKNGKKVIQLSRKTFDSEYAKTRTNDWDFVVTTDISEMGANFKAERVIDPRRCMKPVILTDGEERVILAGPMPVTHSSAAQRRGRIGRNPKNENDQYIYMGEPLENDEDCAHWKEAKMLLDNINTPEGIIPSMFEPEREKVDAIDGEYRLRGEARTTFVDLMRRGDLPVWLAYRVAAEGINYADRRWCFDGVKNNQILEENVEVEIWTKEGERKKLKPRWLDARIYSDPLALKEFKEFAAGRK

With `Oc1cccc(Nc2nc(NCc3ccc(-c4ccccc4)cc3)nc3nc[nH]c23)c1`, the half-maximal effective concentration (EC50) (as a rule, the concentration that produces a half-maximal response) in test [1] is 2.8 µM; in test [2] it was 1.38 to 2.19 µM; in test [3], 1.38 to 2.19 µM; in test [4], 1.38 to 2.19 µM. Take `Cc1cc(N2CCN(C)CC2)ccc1NC(=O)c1c2c(nc3ccccc13)CCN(Cc1ccccc1)C2`: the half-maximal effective concentration (EC50) in test [5] turned out to be 5 µM.

With `CCOC(=O)c1cnn(-c2ccccc2)c1N(S(=O)(=O)c1ccc([N+](=O)[O-])cc1)S(=O)(=O)c1ccc([N+](=O)[O-])cc1`, the figures for the half-maximal effective concentration (EC50) in test [1], in test [6] and in test [7] were 5.7 µM, 0.013 µM and 4.9 µM, respectively. As for `Cc1c(O)cccc1C(=O)N[C@@H](CSc1ccccc1)[C@H](O)CN1C[C@H]2CCCC[C@H]2C[C@H]1C(=O)NC(C)(C)C` [NELFINAVIR], the IC50 (as a rule, the concentration needed to halve the response being measured) in test [1] is 3.5 µM. With `CCCCCCCCCCCCCCNCCNC(=O)C[C@]1(O)C[C@@H](O)[C@@H](O)[C@H](O)C1`, the IC50 in test [8], in test [9], in [10] and in test [11] was 6.5 to 10.8 µM each time. For the compound `CC1(C)O[C@H]1[C@H]1C[C@@H]([C@H]2CC[C@]3(C)C4=CC[C@H]5C(C)(C)C(=O)CC[C@]5(C)[C@H]4CC[C@@]23C)[C@H](O)O1`, the EC50 in test [12] came out at 12 µM.

Take `CCCCCCCCCCCCCCCC[N+](CC)(CO)CO`: a half-maximal response in test [13] (EC50) required 1.03 µM.

Consider `O=C1c2ccccc2C(=O)N1c1ccc(S(=O)(=O)Nc2cccc3ccccc23)cc1`, for which half-maximal inhibition in [14] (IC50) required 122 µM. In [15], `O=C1N[C@@H](Cc2ccccc2)C(=O)N2C[C@H](O)C[C@@H]12` came in with an EC50 of 11.2 to 21.2 µM. As for `C=C1CC/C=C(\C)CC[C@@H]2[C@@H]1CC2(C)C` [BETA-CARYOPHYLLENE], in test [1], the midpoint of inhibition, the IC50, lay at 22 µM.

`C/C=C(\C)C(=O)O[C@@H]1CC[C@]2(C)[C@H]3CC[C@@]4(C)[C@@H]([C@@H]5C[C@H]([C@@H]6OC6(C)C)O[C@H]5O)CC[C@]4(C)C3=CC[C@H]2C1(C)C` yielded a 50% effective concentration (EC50) in [12] of 3 µM. As to `CC[C@](C)(O)CCCCC[C@H]1C=CC(=O)O1`, the EC50 in test [15] fell in the range of 11.2 to 21.2 µM. Turning to `CC(C)CC(=O)c1c(O)c2c(c3c(-c4ccccc4)cc(=O)oc13)OC(C)(C)C=C2` [ISOMAMMEIGIN], the half-maximal effective concentration (EC50) in test [1] lay within 2.6 to 10.2 µM. For `CCCCCCCCCCCCNCCNC(=O)C[C@@]1(O)C[C@@H](O)[C@@H]2OC(C)(C)O[C@@H]2C1`, the IC50 in test [8], in test [9], in test [10] and in [11] was 6.9 to 10.4 µM throughout. In test [16], `CNCCC(Oc1ccc(C(F)(F)F)cc1)c1ccccc1` (stereo unspecified) [FLUOXETINE] gave a half-inhibitory concentration (IC50) of 0.38 µM. For `C[C@@H]1O[C@@H](Oc2c(-c3ccc(O)c(O)c3)oc3cc(O)cc(O)c3c2=O)[C@H](O)[C@H](O)[C@H]1O` [QUERCITRIN], in test [17], the IC50 was 1.7 to 2.1 µM. `O=c1c2cc(O)c(O)cc2oc2cc(O)c([C@@H]3O[C@H](CO)[C@@H](O)[C@H](O)[C@H]3O/C=C/c3ccccc3)c(O)c12` showed a concentration giving a half-maximal response (EC50) in [18] of 3.5 µg/mL (≈ 6.67 µM). The compound `CC(C)C[C@@H]1NC(=O)[C@@H]2C[C@@H](O)CN2C1=O` yielded an EC50 in [15] of 11.2 to 21.2 µM. The same measure, in the same setting: as for `O=C1C=C2CCN3Cc4cc5c(cc4[C@H]([C@@H]1O)[C@@H]23)OCO5`, the figure is 0.4 to 1.8 µM. Consider `C=C(C)[C@@H]1CC[C@]2(C(=O)O)CC[C@]3(C)[C@H](CC[C@@H]4[C@@]5(C)CC[C@H](O)C(C)(C)[C@@H]5CC[C@]43C)[C@@H]12` [BETULINIC ACID], for which the IC50 in [17] is 1.7 to 2.1 µM. `OCc1cc(C(O)CNCCCCCCOCCCCc2ccccc2)ccc1O` (stereo unspecified) [SALMETEROL]: in test [16], half-maximal inhibition (IC50) required 0.67 µM. For `COc1cc(/C(C#N)=C/c2cc3ccccc3[nH]2)cc(OC)c1OC`, the concentration giving a half-maximal response (EC50) in [19] was found to be 8.12 µM. Consider `Cc1ccc(C2=NC(=O)/C(=C/c3cc(O)c(O)c(Br)c3)S2)cc1`, for which, in [20], the half-maximal inhibitory concentration (IC50) fell in the range of 2.94 to 4.06 µM. Further, the EC50 in test [21] is 6.9 µM. As to `CC(=O)O[C@H]1[C@H]2c3cc4c(cc3CN3CCC(=C[C@@H]1O)[C@H]23)OCO4`, the half-maximal effective concentration (EC50) in test [15] lay within 0.4 to 1.8 µM.
